Reference: US12070505B2, “Targeted peptide-drug conjugates” (priority 2021, dated 2024)
Values joined by “and” are separate entries in the source; they are usually repeats but may differ in a detail not shown here. Equal entries are not always repeated.

Assays:
[1] = tested on: H9C2 cells; experiment: Fluorescence/confocal microscopy uptake in heart cells (Example 1); format: cell-based, rat; conditions: 5 μM
Protocol: Fluorescence and Confocal Microscopy. CCRF-CEM, SKOV-3, and H9C2 cells were seeded with EMEM media overnight on coverslips in six-well plates. Then the medium was removed and washed with opti-MEM. The cells were treated with Dox and the peptide-Dox conjugate (5 μM) in opti-MEM for different time intervals (3, 24, and 72 h) at 37° C. After 3 h incubation, the media containing the compound were removed, followed by washing with PBS three times. Then coverslips were placed on a drop of mounting medium on a microscope slide with the cell-attached side facing down. Fluorescence microscopy and laser scanning confocal microscopy were carried out using a Keyence Microscope System and Nikon AIR system, respectively. The cells were imaged using rhodamine and phase contrast channels.
In a separate experiment, confocal microscopy was used as follows. (i) Internalization of [R5K]W7A-Dox conjugate vs. free Dox was determined in Dox-resistant MDA-MB-231 and ME5-SA/MX2 cells as compared to the wild-type MDA-MB-231 cells. The cellular internalization was evaluated in Dox-sensitive and -resistant cells to study the effect of overexpression of the MDR efflux proteins on the Dox internalization by the peptide conjugates. […] (ii) Internalization of Dox and [R5K]W7A-Dox was determined into normal heart muscle cells. […]

[2] = tested on: MES-SA/MX2 cells; experiment: MTS cytotoxicity assay of [(WR)8WKβA]-Dox, MES-SA/MX2; conditions: 5 μM
Protocol: (§1) Cytotoxic activity of the synthesized conjugate and noncovalent mixtures of cyclic [WR]9+Dox was determined in SK-OV-3, MDA-MB-231, MCF-7, MES-SA/MX2, and H9C2 cells. […] An appropriate growth medium was used for each cell line (for SK-OV-3: McCoy's […] with L-glutamine containing fetal bovine serum (FBS) (10%) and penicillin or streptomycin (1%); for MDA-MB-231 and MCF-7 cells: DMEM/F12 (1:1) (1×) with L-Glutamine and 15 mM HEPES containing FBS (10%) and penicillin or streptomycin (1%), and for MES-SA/MX2 and H9C2 cells: Minimum Essential Medium Eagle with Earle's salts and sodium bicarbonate, without L-glutamine containing FBS (10%), and penicillin or streptomycin (1%)). The cells were seeded in a complete growth medium 24 h prior to the experiment. […] The incubation was continued for 3 h.

[3] = tested on: H9C2 cells; experiment: Confocal microscopy uptake in H9C2 (Example 2); format: cell-based, rat; conditions: 5 μM, 24 h
Protocol: Confocal Microscopy. MDA-MB-231, SK-OV-3, MES-SA/MX2, and H9C2 cells (7×10^4 cells/well) were seeded with a medium on a coverslip 24 h prior to the experiment in six well plates. After 24 h, the medium was changed with opti-MEM. The cells were treated with Dox and peptide-Dox conjugate (5 μM) in opti-MEM for 24 h. After 24 h incubation, the media were removed, and cells were washed three times with PBS in each well. Then, the cells were fixed with 3.7% formaldehyde for 10 min, followed by washing three times with PBS (pH 7.6) for 5 min. DAPI (40 μL) for staining the nuclei was placed on a microscope slide, and it was covered with the coverslip with the cell-attached side facing down. The slides were left standing horizontally in a dark place with airflow to allow faster drying. The cells were photographed using Nikon Instruments A1 Confocal Laser Microscope Series and NIS-Elements software (AR 4.30.02, 64 bit). The scan mode was selected as Galvano. The magnification and resolution were set at 40× and 1024, respectively.

[4] = tested on: SK-OV-3 cells; experiment: MTS cytotoxicity assay of [(WR)8WKβA]-Dox, SK-OV-3; conditions: 5 μM, 72 h
Protocol: as §1

[5] = tested on: SK-OV-3 cells; experiment: Cytotoxicity, MTS cell viability assay, SK-OV-3 (Example 1)
Protocol: (§2) In Vitro Cytotoxicity Assay of Peptide-Drug Conjugates. […] In brief, CCRF-CEM cells were seeded at 50,000 cells in 0.1 mL per well in 98-well plates. In the case of other cell lines, the cells were seeded at 5,000 cells (0.1 mL per well in 96-well plates). […] Dox (5 μM) was used as a positive control, while water and cell culture medium were used as negative controls. The compounds were dissolved in water; water was used as a negative control to normalize the data. After the incubation period, MTS reagent (20 μL) was added to each well. The incubation was continued for 2 h. Cell viability was then determined by determination of the fluorescence intensity at 490 nm using a SpectraMax M2 microplate spectrophotometer. The percentage of cell viability was then calculated using the following equation: [(OD value of cells treated with the compound)−(OD value of culture medium)]/[(OD value of control cells)−(OD value of culture medium)]×100% (FIGS. 6-9).

[6] = tested on: uterine sarcoma cells (MES-SA/MX2); conditions: 5 μM
Protocol: as §2

[7] = tested on: MCF-7 cells; experiment: MTS cytotoxicity assay of [(WR)8WKβA]-Dox, MCF-7; format: cell-based; conditions: 5 μM
Protocol: as §1

COc1cccc2c1C(=O)c1c(O)c3c(c(O)c1C2=O)C[C@@](O)(C(=O)CO)C[C@@H]3O[C@H]1C[C@H](N)[C@H](O)[C@H](C)O1 [Dox, doxorubicin, reference compound]
uptake in heart cells (microscopy, words) [1]: significant uptake | efficiency against MES-SA/MX2 ([2]; 1 μM, 10 μM, or 20 μM): did not show significant efficiency | inhibition of cell viability/proliferation ([2]; MES-SA/MX2): 15% | uptake in heart cells (confocal microscopy, words) [3]: high uptake | reduction of cell viability / inhibition of proliferation [4]: 35% | Cell Viability (%) after 24 h ([5]; 5 μM): 73 ± 2% | Cell Viability (%) after 72 h ([5]; 5 μM): 67 ± 3% | reduction of cell survival/viability ([5]; 5 μM, 24 h): 27% and 30% | reduction of cell survival/viability ([5]; 5 μM, 72 h): 33% | Cell Viability (%) after 24 h ([5]; 10 μM): 71 ± 3% | Cell Viability (%) after 72 h ([5]; 10 μM): 64 ± 1% | cytotoxicity ([5]; Dox alone 5 and 10 μM): 27-36% | Cell Viability (%) after 72 h [6]: 119 ± 5% | toxicity ([6]; 72 h): did not show any toxicity | reduction of cell proliferation ([7]; 24 h): 21% | reduction of cell proliferation ([7]; 72 h): 57%
